Experimental data reported in patent publication US20170312207A1, “MOISTURIZING AGENT” (SHOWA DENKO K.K., priority 2014, published 2017).

Key:
loricrin gene = experiment: Promoting expression of CE-forming-related factor: loricrin gene, quantitative real-time PCR; format: cell-based, human; settings: SVHK cells, 1 μM, 48 hours; standardized to GAPDH; purified water control 1.00
Experimental: (§1) Loricrin, involucrin, and transglutaminase-1 are known as CE-forming-related factors. Here, effect of an inositol derivative on promoting expression of CE-forming-related factors was examined by using human epidermal cells. Human epidermal cells (SVHK cells) which were established from introduction of SV40 gene into human epidermal cells, were seeded on a plastic petri dish at a seeding density of 10,000 cells/cm^2 and cultured for 24 hours in Dulbecco's Modified Eagle's Medium (DMEM, manufactured by Sigma-Aldrich Co. LLC.) containing 10% fetal bovine serum. […] Next, quantitative real-time PCR was performed using this cDNA as a template, and the expression levels of loricrin gene, involucrin gene, and transglutaminase-1 (TG-1) gene in SVHK cells of each group were quantified, respectively. In addition, the expression level of glyceraldehyde-3-phosphate dehydrogenase (GAPDH) which is a housekeeping gene in which variation is not observed in the expression by adding a compound, as an internal standard gene, was quantified, and based on the expression levels of GAPDH gene in SVHK cells of each group, the expression levels of loricrin gene, involucrin gene, and TG-1 gene were standardized. […]

involucrin gene = experiment: Promoting expression of CE-forming-related factor: involucrin gene, quantitative real-time PCR; format: cell-based, human; settings: SVHK cells, 1 μM, 48 hours; standardized to GAPDH; purified water control 1.00
Experimental: as §1

[1] = system: transglutaminase-1 (TG-1) gene; experiment: Promoting expression of CE-forming-related factor: transglutaminase-1 (TG-1) gene, quantitative real-time PCR; format: cell-based, human; settings: SVHK cells, 1 μM, 48 hours; standardized to GAPDH; purified water control 1.00
Experimental: as §1

[2] = system: Normal human epidermal keratinocytes (NHEK cell); experiment: Test for evaluating CE-forming ability; format: cell-based; settings: NHEK cells, 1.8 mM Ca2+ medium, 1 μM, four days; purified water control 100
Experimental: Normal human epidermal keratinocytes (NHEK cell manufactured by KURABO INDUSTRIES LTD.) were seeded on a 24 well plate at 1×10^5 cells/cm^2 and cultured at 37° C. under 5% CO2 to reach confluence. As a medium of NHEK cells, HuMedia-KG2 (product name, manufactured by KURABO INDUSTRIES LTD.) was used. After that, the medium was replaced to HuMedia-KG2 medium containing 1.8 mM Ca2+, the inositol derivative dissolved in purified water of Example 2 was added to the final concentration of 1 μM, and culturing was further performed for four days. As for a control, in place of the inositol derivative, the same amount of purified water was added to NHEK cells, and the cells were cultured in the same manner as above. In addition, for comparison, myo-inositol dissolved in purified water was added to NHEK cells in place of the inositol derivative, and the cells were cultured in the same manner as above. After four days of culturing, cells of each group were collected, removed of the supernatant, added with 2% sodium dodecyl sulfate (SDS)-20 mM dithiothreitol (DTT), and heated at 100° C. for 15 minutes. Next, the cells were added with 1% acetic acid-50% ethanol, centrifuged (at 15,000 rpm for five minutes), and removed of the supernatant. Next, the cells were added with 10 mM Tris-HCl-1 mM EDTA and observed with a microscope, and an amount of CE formation was counted. […]

AQP3 gene = experiment: Promoting effect on AQP3 expression, quantitative real-time PCR; format: cell-based, human; settings: SVHK cells, 1 μM, 48 hours; standardized to GAPDH; purified water control 1.00
Experimental: (§2) Human epidermal cells (SVHK cells) which were established from introduction of SV40 gene into human epidermal cells, were seeded on a plastic petri dish at a seeding density of 10,000 cells/cm^2 and cultured for 24 hours in Dulbecco's Modified Eagle's Medium (DMEM, manufactured by Sigma-Aldrich Co. LLC.) containing 10% fetal bovine serum. Next, to the medium of SVHK cells, the inositol derivatives dissolved in purified water of Examples 1 to 6 and Comparative Example 1 were added to the final concentration of 1 μM, and culturing was further performed for 48 hours. As for a control, in place of the inositol derivative, the same amount of purified water was added to SVHK cells, and the cells were cultured in the same manner as above. […] Next, quantitative real-time PCR was performed using this cDNA as a template, and the expression levels of AQP3 gene in SVHK cells of each group were quantified. In addition, the expression level of glyceraldehyde-3-phosphate dehydrogenase (GAPDH) which is a housekeeping gene in which variation is not observed in the expression by adding a compound, as an internal standard gene, was quantified, and based on the expression levels of GAPDH gene in SVHK cells of each group, the expression levels of AQP3 gene were standardized. […]

SPT1 gene = experiment: Promoting effect on serine palmitoyltransferase expression: SPT1 gene; format: cell-based, human; settings: SVHK cells, 10 μM, 48 hours; standardized to GAPDH; purified water control 1.00
Experimental: (§3) Serine palmitoyltransferase (SPT) is known as a rate-limiting enzyme for ceramides synthesis. Here, effect of an inositol derivative on promoting SPT gene expression was examined by using human epidermal cells. Human epidermal cells (SVHK cells) which were established from introduction of SV40 gene into human epidermal cells, were seeded on a plastic petri dish at a seeding density of 10,000 cells/cm^2 and cultured for 24 hours in Dulbecco's Modified Eagle's Medium (DMEM, manufactured by Sigma-Aldrich Co. LLC.) containing 10% fetal bovine serum. […] Next, quantitative real-time PCR was performed using this cDNA as a template, and the expression levels of SPT gene in SVHK cells of each group were quantified. More specifically, the expression levels of SPT1, SPT2, and SPT3 genes which are subunits of SPT were quantified. In addition, the expression level of glyceraldehyde-3-phosphate dehydrogenase (GAPDH) which is a housekeeping gene in which variation is not observed in the expression by adding a compound, as an internal standard gene, was quantified, and based on the expression levels of GAPDH gene in SVHK cells of each group, the expression levels of SPT1, SPT2, and SPT3 genes were standardized. […]

SPT2 gene = experiment: Promoting effect on serine palmitoyltransferase expression: SPT2 gene; format: cell-based, human; settings: SVHK cells, 10 μM, 48 hours; standardized to GAPDH; purified water control 1.00
Experimental: as §3

SPT3 gene = experiment: Promoting effect on serine palmitoyltransferase expression: SPT3 gene; format: cell-based, human; settings: SVHK cells, 10 μM, 48 hours; standardized to GAPDH; purified water control 1.00
Experimental: as §3

filaggrin gene = experiment: Promoting effect on filaggrin gene expression, quantitative real-time PCR; format: cell-based, human; settings: SVHK cells, 10 μM, 48 hours; standardized to GAPDH; purified water control 1.00
Experimental: as §2, with “Effect of an inositol derivative on promoting filaggrin gene expression was examined by using human epidermal cells. Human epidermal” for “Human epidermal”, “concentration of 10 μM, and” for “concentration of 1 μM, and”, “levels of filaggrin gene in” for “levels of AQP3 gene in”, “levels of filaggrin gene were” for “levels of AQP3 gene were”

O[C@H]1[C@H](O)[C@@H](O)[C@H](O)[C@@H](O)[C@H]1O [Myo-inositol, myo-inositol]
Expression levels of gene (relative value) lorierin (loricrin gene): 0.39 | Expression levels of gene (relative value) involucrin (involucrin gene): 2.42 | Expression levels of gene (relative value) TG-1 [1]: 1.96 | Amount of CE formation (relative value) [2]: 123 | Expression levels of AQP3 gene (relative value) (AQP3 gene): 0.83 | Expression levels of gene (relative value) SPT1 (SPT1 gene): 2.01 | Expression levels of gene (relative value) SPT2 (SPT2 gene): 2.49 | Expression levels of gene (relative value) SPT3 (SPT3 gene): 1.64 | Expression levels of filaggrin gene (relative value) (filaggrin gene): 5.94
